Laboratory results from patent US11180462B2, “Microbiocidal oxadiazole derivatives” (SYNGENTA PARTICIPATIONS AG, priority 2015, dated 2021).

Assays:
[1] = tested on: Puccinia recondita f. Sp. Tritici; experiment: Fungicidal activity against Puccinia recondita f. sp. tritici / wheat / leaf disc curative (brown rust); format: in vivo; details: foliar, 24 h, 200 ppm in the applied formulation, wheat leaf segments, curative (applied 1 day after inoculation), compared to untreated control leaf disks, read-out: disease control
How it was run: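 Inoculate cv. Kanzler segments on agar; hold dark, 19° C, 75% RH. Spray diluted formulated compound at day 1. Incubate 12 h light/12 h dark, same temperature and humidity; score % control vs untreated 6–8 days later.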

[2] = tested on: Glomerella lagenarium (Colletotrichum lagenarium); experiment: Fungicidal activity against Glomerella lagenarium (Colletotrichum lagenarium) liquid culture / cucumber / preventative (anthracnose); format: cell-based; details: Colletotrichum orbiculare; 20 ppm in the applied formulation; liquid culture (PDB), growth inhibition measured photometrically after 3 to 4 days; compared to untreated control; read-out: disease control
How it was run: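 Photometric read-out of fungal growth after 2–7 days, expressed as percent antifungal activity versus untreated check. Cryo-stored conidia in PDB; compound at 20 ppm; dark, 24 °C, 96% RH.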

Phakopsora Pachyrhizi = experiment: Fungicidal activity against Phakopsora pachyrhizi / soybean / leaf disc preventative (Asian soybean rust); format: in vivo; details: foliar, 200 ppm in the applied formulation, soybean leaf disks, compared to untreated control leaf disks, read-out: disease control
How it was run: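 Preventative soybean leaf-disc test: discs on water agar sprayed with diluted formulated compound, inoculated one day later with spores on the lower surface. Held 24–36 h dark at 20°C, 75% rh, then 12 h light/day; percent disease control versus untreated discs scored 12–14 days after application.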

[3] = tested on: Puccinia recondita f. Sp. Tritici; experiment: Fungicidal activity against Puccinia recondita f. sp. tritici / wheat / leaf disc preventative (brown rust); format: in vivo; details: foliar, 200 ppm in the applied formulation, wheat leaf segments, preventative, compared to untreated control leaf disks, read-out: disease control
How it was run: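 Preventative leaf-segment test, wheat cv. Kanzler on water agar. Spray compound at 200 ppm, inoculate with spores 1 day later; 19° C., 75% rh, 12/12 h light. Read-out: % disease control vs untreated, 7 to 9 days after application.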

SMILES	pest or weed control at 200 ppm [1] [%]	inhibition of growth at 20 ppm [2] [%]	pest or weed control at 200 ppm (Phakopsora Pachyrhizi) [%]	pest or weed control at 200 ppm [3] [%]
O=C(C1CC1)N(Cc1ccc(-c2noc(C(F)(F)F)n2)cc1)CC(F)(F)F [Compound 1.586, N-(2,2,2-trifluoroethyl)-N-[[4-[5-(trifluoromethyl)-1,2,4-oxadiazol-3-yl]phenyl]methyl]-cyclopropane-carboxamide]	≥ 80	≥ 80	≥ 80	–
CON(Cc1ccc(-c2noc(C(F)(F)F)n2)cc1)C(=O)c1ccc(Cl)cc1 [Compound 1.71, 4-chloro-N-methoxy-N-[[4-[5-(trifluoromethyl)-1,2,4-oxadiazol-3-yl]phenyl]methyl]-benzamide]	≥ 80	≥ 80	≥ 80	–
COCCOC(=O)N(Cc1ccc(-c2noc(C(F)(F)F)n2)cc1)OC [Compound 2.2, 2-methoxyethyl N-methoxy-N-[[4-[5-(trifluoromethyl)-1,2,4-oxadiazol-3-yl]phenyl]methyl]-carbamate]	≥ 80	≥ 80	≥ 80	–
COCCC(=O)N(Cc1ccc(-c2noc(C(F)(F)F)n2)cc1)CC(F)(F)F [Compound 1.693, 3-methoxy-N-(2,2,2-trifluoroethyl)-N-[[4-[5-(trifluoromethyl)-1,2,4-oxadiazol-3-yl]phenyl]methyl]-propanamide]	≥ 80	≥ 80	≥ 80	–
COC(C)C(=O)N(Cc1ccc(-c2noc(C(F)(F)F)n2)cc1)C1COC1 (stereo not shown) [Compound 1.750, 2-methoxy-N-(oxetan-3-yl)-N-[[4-[5-(trifluoromethyl)-1,2,4-oxadiazol-3-yl]phenyl]methyl]-propanamide]	≥ 80	–	≥ 80	–
CCC(=O)N(Cc1ccc(-c2noc(C(F)(F)F)n2)cn1)OC [Compound 1.571, N-methoxy-N-[[5-[5-(trifluoromethyl)-1,2,4-oxadiazol-3-yl]-2-pyridyl]methyl]-propanamide]	≥ 80	≥ 80	≥ 80	–
CCC(=O)N(Cc1ccc(-c2noc(C(F)(F)F)n2)cc1F)OC [Compound 1.568, N-[[2-fluoro-4-[5-(trifluoromethyl)-1,2,4-oxadiazol-3-yl]phenyl]methyl]-N-methoxy-propanamide]	≥ 80	≥ 80	≥ 80	–
CCCN(Cc1ccc(-c2noc(C(F)(F)F)n2)cc1)C(=O)CC(F)(F)F [Compound 1.667, 3,3,3-trifluoroN-propyl-N-[[4-[5-(trifluoromethyl)-1,2,4-oxadiazol-3-yl]phenyl]methyl]-propanamide]	≥ 80	≥ 80	≥ 80	–
CON(Cc1ccc(-c2noc(C(F)(F)F)n2)c(F)c1F)C(=O)c1ccccc1Cl [Compound 1.576, 2-chloro-N-[[2,3-difluoro-4-[5-(trifluoromethyl)-1,2,4-oxadiazol-3-yl]phenyl]methyl]-N-methoxy-benzamide]	–	≥ 80	≥ 80	≥ 80
CON(Cc1ccc(-c2noc(C(F)(F)F)n2)cc1)C(=O)NC1CCCCC1 [Compound 3.11, 3-cyclohexyl-1-methoxy-1-[[4-[5-(trifluoromethyl)-1,2,4-oxadiazol-3-yl]phenyl]methyl]urea]	–	≥ 80	≥ 80	≥ 80
CON(Cc1ccc(-c2noc(C(F)(F)F)n2)cc1)C(=O)C1C(C)(C)C1(C)C [Compound 1.14, N-methoxy-2,2,3,3-tetramethyl-N-[[4-[5-(trifluoromethyl)-1,2,4-oxadiazol-3-yl]phenyl]methyl]-cyclopropane-carboxamide]	≥ 80	–	≥ 80	–
N#CC1(C(=O)N(CCO)Cc2ccc(-c3noc(C(F)(F)F)n3)cc2)CC1 [Compound 1.729, 1-cyano-N-(2-hydroxyethyl)-N-[[4-[5-(trifluoromethyl)-1,2,4-oxadiazol-3-yl]phenyl]methyl]-cyclopropane-carboxamide]	–	≥ 80	≥ 80	≥ 80
O=C(C1CCC1)N(Cc1ccc(-c2noc(C(F)(F)F)n2)cc1)CC1CC1 [Compound 1.221, N-(cyclopropylmethyl)-N-[[4-[5-(trifluoromethyl)-1,2,4-oxadiazol-3-yl]phenyl]methyl]-cyctobutane-carboxamide]	–	≥ 80	≥ 80	≥ 80
CCCC(=O)N(Cc1ccc(-c2noc(C(F)(F)F)n2)cc1)CC1CC1 [Compound 1.210, N-(cyclopropylmethyl)-N-[[4-[5-(trifluoromethyl)-1,2,4-oxadiazol-3-yl]phenyl]methyl]-butanamide]	≥ 80	≥ 80	≥ 80	–
C#CCN(Cc1ccc(-c2noc(C(F)(F)F)n2)cc1)C(=O)C1CC1(Cl)Cl (stereo not shown) [Compound 1.190, 2,2-dichloro-N-prop-2-ynyl-N-[[4-[5-(trifluoromethyl)-1,2,4-oxadiazol-3-yl]phenyl]methyl]-cyclopropane-carboxamide]	–	≥ 80	≥ 80	≥ 80
CON(Cc1ccc(-c2noc(C(F)(F)F)n2)cc1)C(=O)C1(c2ccccc2)CC1 [Compound 1.23, N-methoxy-1-phenyl-N-[[4-[5-(trifluoromethyl)-1,2,4-oxadiazol-3-yl]phenyl]methyl]-cyclopropane-carboxamide]	≥ 80	≥ 80	≥ 80	–
O=C(CC1CC1)N(CCO)Cc1ccc(-c2noc(C(F)(F)F)n2)cc1 [Compound 1.736, 2-cyclopropyl-N-(2-hydroxyethyl)-N-[[4-[5-(trifIuoromethyl)-1,2,4-oxadiazol-3-yl]phenyl]methyl]-acetamide]	–	≥ 80	≥ 80	≥ 80
C#CCOc1ccc(C(=O)N(Cc2ccc(-c3noc(C(F)(F)F)n3)cc2)OC)cc1F [Compound 1.51, 3-fluoro-N-methoxy-4-prop-2-ynoxy-N-[[4-[5-(trifluoromethy)-1,2,4-oxadiazol-3-yl]phenyl]methyl]-benzamide]	–	≥ 80	≥ 80	≥ 80
CCON(Cc1ccc(-c2noc(C(F)(F)F)n2)cc1)C(=O)CC#N [Compound 1.627, 2-cyano-N-ethoxy-N-[[4-[5-(trifluoromethyl)-1,2,4-oxadiazol-3-yl)phenyl]methyl]-acetamide]	–	≥ 80	≥ 80	≥ 80
O=C(C1CCCC1)N(Cc1ccc(-c2noc(C(F)(F)F)n2)cc1)CC1CC1 [Compound 1.212, N-(cyclopropylmethyl)-N-[[4-[5-(trifluoromethyl)-1,2,4-oxadiazol-3-yl]phenyl]methyl]-cyclopentane-carboxamide]	–	≥ 80	≥ 80	≥ 80
O=C(CC1CC1)OCCN(Cc1ccc(-c2noc(C(F)(F)F)n2)cc1)C(=O)CC1CC1 [Compound 1.737, 2-[(2-cyclopropylacetyl)-[[4-[5-(trifluoromethyl)-1,2,4-oxadiazol-3-yl]phenyl]methyl]-amino]ethyl 2-cyclopropylacetate]	–	≥ 80	≥ 80	≥ 80
COC(=O)N(Cc1ccc(-c2noc(C(F)(F)F)n2)cc1)OC [Compound 2.3, methyl N-methoxy-N-[[4-[5-(trifluoromethyl)-1,2,4-oxadiazol-3-yl]phenyl]methyl]carbamate]	≥ 80	≥ 80	≥ 80	–
CON(Cc1ccc(-c2noc(C(F)(F)F)n2)cc1)C(=O)N1CCOCC1 [Compound 3.1, N-methoxy-N-[[4-[5-(trifluoromethyl)-1,2,4-oxadiazol-3-yl]phenyl]methyl]-morpholine-4-carboxamide]	≥ 80	≥ 80	≥ 80	–
O=C(C1CC1(F)F)N(Cc1ccc(-c2noc(C(F)(F)F)n2)cc1)CC1CC1 (stereo not shown) [Compound 1.207, N-(cyclopropylmethyl)-2,2-difluoroN-[[4-[5-(trifluoromethyl)-1,2,4-oxadiazol-3-yl]phenyl]methyl]-cyclopropane-carboxamide]	≥ 80	≥ 80	≥ 80	–
COCC(=O)OCCN(Cc1ccc(-c2noc(C(F)(F)F)n2)cc1)C(=O)COC [Compound 1.716, 2-[(2-methoxy-acetyl)-[[4-[5-(trifluoromethyl)-1,2,4-oxadiazol-3-yl]phenyl]methyl]-amino]ethyl 2-methoxyacetate]	–	≥ 80	≥ 80	≥ 80
